Measured values published in PMC9085437, “Silica-coated magnetic iron oxide functionalized with hydrophobic polymeric ionic liquid: a promising nanoscale sorbent for simultaneous extraction of antidiabetic drugs from human plasma prior to their quantitation by HPLC” (RSC Advances, 2018).

Experiment: Pharmacokinetic assessment in healthy fed male volunteers after oral tablet administration, plasma quantified by MSPE-HPLC-UV
Conditions: human, in vivo, 25 mg
Procedure: The chromatographic analysis was conducted using a Waters alliance e2695, (Massachusetts, USA) system which was equipped with a Waters 2487 dual wavelength detector and C18 TMS endcapping/reversed phase column (Luna 5 μm C18 100 A HPLC column 250 × 4.6 mm id, Phenomenex Co, Torrance, CA) at 40 °C. The mobile phase which being used in an isocratic mode was composed of potassium dihydrogen phosphate and sodium dodecyl sulfate (0.01 M, pH 6): acetonitrile (55 : 45, v/v) and passed through column with flow rate of 1 mL min^−1 (the mobile phase was filtered and degassed daily prior to use in HPLC). […] The column effluent was monitored at UV wavelength of 215 nm and the injection volume was 20.0 μL. The mobile phase was filtered by passing it through a 0.2 μm membrane filter (Millipore, Bedford, MA, USA).
Every frozen human plasma were firstly thawed at room temperature and placed into a sample glass tube. Preparation of plasma before MSPE method was based on protein precipitation with aid of acetonitrile. In this regard, the plasma (1.9 mL) was fortified with 100.0 μL of required concentrations of analytes followed by mixing with 2.0 mL ACN. The obtained solution was vortexed for 1 min and centrifuged for 5 min at 3500 rpm. Then, ACN content of the clear supernatant was evaporated under nitrogen stream and the remaining sample was transferred into 4.0 mL buffer solution at pH 4.0. Sample volume after evaporation under nitrogen stream was about 2 mL and total sample volume after transferring to 4 mL buffer solution was about 6 mL. 5.0 mL of the deproteinized samples containing target drugs were subjected to the extraction procedure for subsequent analysis.
Initially, 5.0 mL of the deproteinized human plasma (initial volume of spiked plasma sample 2.0 mL) was placed into a glass tube and 10.0 mg of magnetic Fe3O4@SiO2@PIL was added to the sample. The mixture was sonicated for 4 min to totally disperse the magnetic sorbent through the matrix and complete the extraction of target drugs at room temperature. Analyte-loaded sorbent was collected from the sample solution by exposing the glass tube to a powerful neodymium–iron–boron (Nd–Fe–B) magnet (5 × 5 × 4 cm, 0.8 tesla), and the upper phase was poured out. Later, the adsorbed analytes were eluted by 1.0 mL of acetonitrile (0.5 mL every time and washed two times) to desorb the analytes. Elution process was completed during 2 min in the ultrasonic bath. The magnet was used again to separate the sorbent and then the total volume of eluted solution was collected and evaporated to dryness under stream of the nitrogen. The dry residue was re-dissolved in 100.0 μL of mobile phase and stirred for 1 min. Finally, 20.0 μL of this solution was injected into the HPLC-UV system for analysis.
Eight healthy fed male volunteers within the age range of 28–42 years old were enrolled in these studies. […] The plasma samples were immediately transferred into a clean polypropylene tube and stored at −18 °C until being used. All assessments were approved by “The Committee For Research Ethics” of Department of Pharmacy and Pharmaceutical Sciences Research Center, Tehran University of Medical Sciences. In the next experiments, a single oral dose administration of Jardiance tablet (25 mg EMPA) was performed to four volunteers and the blood samples were collected and treated as the previous experiments. Each real sample was extracted at optimal conditions by the proposed procedure and the mean plasma concentration–time curve was obtained.

In the case of `OC[C@H]1O[C@@H](c2ccc(Cl)c(Cc3ccc(O[C@H]4CCOC4)cc3)c2)[C@H](O)[C@@H](O)[C@@H]1O` [EMPA, empagliflozin], the AUC(0-inf) is reported as 1430 ± 151 ng·h/mL, the AUC(0-t) is reported as 1400 ± 122 ng·h/mL and the Cmax is reported as 216 ± 44.1 ng/mL. The Tmax was 2.9 ± 0.3 h and the half-life was 7.2 ± 1.1 h.
